Measurements published in patent EP4696306A1, “ADENOSINE TRIPHOSPHATE SECRETION INHIBITOR, HEPATIC STELLATE CELL ACTIVATION INHIBITOR, HEPATIC STELLATE CELL DEACTIVATOR, HEPATIC FIBROSIS THERAPEUTIC AGENT, NON-ALCOHOLIC STEATOHEPATITIS THERAPEUTIC AGENT, PSORIASIS THERAPEUTIC AGENT, AND USE OF COMPOUND FOR PRODUCING ADENOSINE TRIPHOSPHATE …” (KURUME UNIVERSITY, priority 2023, dated 2024).

Experiments:
[1] = system: LX-2 cells; assay: ATP secretion from LX-2 cells; assay type: cell-based, human
Procedure: Cells of the immortalized human hepatic stellate cell line LX-2 (manufactured by Merck) was cultured in Dulbecco's modified Eagle's medium (DMEM, 4500 mg/l Glucose, D5796, manufactured by Sigma-Aldrich) supplemented with inactivated 2% fetal bovine serum (FBS), 10 IU/ml penicillin, and 10 IU/ml streptomycin in a T25 or T75 flask at 37°C in 5% CO2.
LX-2 cells (2 × 10^6 cells per well) were seeded in a collagen-coated 6-well culture dish containing Dulbecco's modified Eagle's medium (manufactured by Sigma-Aldrich) supplemented with 10 IU/ml penicillin, […] 2% fetal bovine serum, and cultured in 5% CO2 at 37°C. After 3 days, the LX-2 cells were washed twice and preincubated in Krebs-Ringer buffer (10 mM HEPES-Tris, pH 7.4, 128 mM NaCl, 1.9 mM KCl, 1.2 mM KH2PO4, 1.3 mM MgSO4, 26 mM NaHCO3, 2.4 mM CaCl2, 10 mM glucose, 0.2% (w/v) bovine serum albumin) with or without 10 µM clodronate. The LX-2 cells were then stimulated with Krebs-Ringer buffer supplemented with ionomycin (manufactured by Cayman) regardless of whether clodronate was present or not. For the stimulation, 1 mM EGTA (manufactured by Dojindo) or 10 µM serotonin (5-HT, manufactured by Sigma-Aldrich) was used. The ATP concentration in the culture supernatant was measured in the same manner as in Example 6.

[2] = system: human epidermal keratinocytes; assay: ATP secretion promoted by ionomycin in keratinocytes; assay type: cell-based
Procedure: Human epidermal keratinocytes (Cryopreserved HEK, Lot 1758, Cell Applications Inc.) were cultured using an Epivita Keratinocyte Growth Medium Kit according to the manufacturer's instructions. The procedure was as follows. A supplement medium was added to a hydrocortisone-containing basal medium included in the medium preparation kit to prepare a complete medium. The medium in the dish was removed by aspiration. The cells were washed with 5 ml of BSS (Gbco), and then the BSS was removed by aspiration. After addition of 5 to 6 ml of trypsin/EDTA solution (Gbco), the dish was incubated at 37°C for 2 minutes. After addition of 5 ml of trypsin neutralization solution, the resulting cell suspension was transferred into two 15-ml Falcon tubes, and centrifuged at 200 × g for 5 minutes. The supernatant was removed by aspiration, and the pelleted cell cluster was suspended in 2 ml of the medium at 4.5 × 10^5 cells/ml. An aliquot of the resulting cell suspension was cryopreserved, while another aliquot was cultured and subjected to measurement.
ATP secretion by human epidermal keratinocytes (hereinafter referred to as "keratinocytes") was measured. Regarding control solutions, Krebs-Ringer HEPES supplemented with 0.2% BSA and 25 mM glucose (hereinafter also referred to as "Krebs/Iono(-)") was used as a negative control, and a solution prepared by adding 5 µM ionomycin to this solution (hereinafter also referred to as "Krebs/Iono(+)") was used as a positive control for ATP secretion. Ionomycin is a Ca^2+ ionophore. Addition of ionomycin to cells is known to promote influx of extracellular Ca^2+ into the cells to increase the intracellular Ca^2+ concentration, resulting in enhancement of ATP secretion. Test solutions were prepared by adding clodronate to Krebs/Iono(-) or Krebs/Iono(+) to a final concentration of 0.1 µM (hereinafter also referred to as "Clo/Iono(-)" or "Clo/Iono(+)", respectively) (N = 3).
Keratinocytes were cultured at 2.5 × 10^4 cells/well in a 24-well plate at 37°C in 5% CO2 for 4 days. The medium was removed by aspiration, replaced with Krebs/Iono(-) or Clo/Iono(-), and incubated at 37°C for 6 hours. These solutions were then removed by aspiration, and the content of each well incubated with Krebs/Iono(-) was replaced with 300 µl of a control solution (Krebs/Iono(-) or Krebs/Iono(+)), while the content of each well incubated with Clo/Iono(-) was replaced with 300 µl of a test solution (Clo/Iono(-) or Clo/Iono(+)). After further incubation at 37°C for 20 minutes, 200 µl of the supernatant was collected. The collected supernatant was immediately treated on a heat block at 95°C for 10 minutes, to inactivate ectonucleotidase. ATP in the supernatant was quantified using a Dojindo ATP assay kit - Luminescence (manufactured by Dojindo Laboratories).
After culturing keratinocytes, the medium was removed by aspiration, and replaced with Krebs/Iono(-), or Krebs/Iono(-) supplemented with 10 µM imeglimin, 0.1 µM EPA, 1 µM EPA, or 10 µM clodronate, followed by incubation for 6 hours. Subsequently, the solution was replaced with either a control solution (Krebs/Iono(-) or Krebs/Iono(+)) or a test solution (Krebs/Iono(+) supplemented with 10 µM imeglimin, 0.1 µM EPA, 1 µM EPA, or 10 µM clodronate), followed by incubation at 37°C for 20 minutes and then collection of 200 µl of the supernatant. The collected supernatant was immediately treated on a heat block at 95°C for 10 minutes to inactivate ectonucleotidase. ATP in the supernatant was quantified using a Dojindo ATP assay kit - Luminescence (manufactured by Dojindo Laboratories).
Keratinocytes were cultured in the same manner as in Example 1, and the medium was replaced with Krebs/Iono(-), Krebs/Iono(-) supplemented with 0.1 µM, 1 µM, or 10 µM imeglimin, or Krebs/Iono(-) supplemented with 0.1 µM, 1 µM, or 10 µM metformin, followed by incubation for 6 hours. […]

[3] = system: THP-1 cells; assay: LPS-stimulated ATP secretion in macrophages differentiated from THP-1 cells; assay type: cell-based, human; settings: 10 µM; LPS 10 µg/ml 10 minutes; N = 10
Procedure: Human acute monocytic leukemia cells (THP-1 cells (ACTT)) were cultured in accordance with Reference D. THP-1 cells were cultured in RPMI1640 medium supplemented with 10% fetal bovine serum (FBS), 100 units/ml penicillin, and 100 µg/ml streptomycin at 37°C in 5% CO2 for 1 day. Further, THP-1 cells were cultured in RPMI1640 medium supplemented with 1 µg/ml Escherichia coli scrotype 055:B5 (manufactured by Sigma-Aldrich) and 1000 units/ml mouse IFN-γ (manufactured by R&D Systems) at 37°C in 5% CO2 for 1 day, to allow differentiation into macrophages.
The differentiated macrophages were cultured in RPMI1640 medium supplemented with 1 mg/ml Escherichia coli scrotype 055:B5 (manufactured by Sigma-Aldrich) and 1000 units/ml mouse IFN-γ (manufactured by R&D Systems) at 2.5 × 10^4 cells/well in a 24-well plate at 37°C in 5% CO2 for 4 days. The medium was replaced with HBSS (manufactured by Gibco) supplemented with imeglimin or clodronate), and then LPS (10 µg/ml) was added thereto, followed by further performing incubation for 10 minutes and then collection of 200 µl of the supernatant. The supernatant was immediately treated on a heat block at 95°C for 10 minutes, and ATP in the supernatant was quantified using an ATP assay kit - Luminescence (manufactured by Dojindo) (N = 10).

[4] = 10 µM, 6 hours incubation, then 20 minutes with ionomycin, N = 4

Structure (SMILES) | ATP exocytosis induced by ionomycin ([1]; 10 µM clodronate, N = 6) | ATP secretion promoted by 5-HT ([1]; 10 µM serotonin, 10 µM clodronate, N = 6) | ATP secretion promoted by ionomycin ([2]; 0.1 µM clodronate, 6 hours incubation, then 20 minutes with 5 µM ionomycin, N = 3) | ATP secretion promoted by ionomycin [2, 4] | ATP secretion upon LPS stimulation [3] | ATP secretion from the LX-2 cells ([1]; imeglimin, concentration not given, N = 8) | ATP secretion inhibitory effect, comparison and concentration dependence ([2]; 0.1 µM, 1 µM, 10 µM, 6 hours incubation, N = 3) | ATP secretion inhibitory effect ([2]; 0.1 µM, 6 hours incubation, N = 3) | time required for production of a strong inhibitory effect ([2]; 1 µM imeglimin) | ATP secretion level relative to that obtained using the control solution ([2]; 1 µM imeglimin, incubation time 2 hours, N = 3) | ATP secretion level relative to that obtained using the control solution ([2]; 1 µM imeglimin, incubation time 6 hours, N = 3) | ATP secretion inhibitory effect compared with reference inhibitors ([2]; 10 µM imeglimin versus 1 µM EPA and 10 µM clodronate) | ATP secretion promoted by ionomycin ([2]; 5 mM PEP, 20 minutes, N = 4) | ATP secretion promoted by ionomycin ([2]; 10 mM PEP, 20 minutes, N = 4) | concentration exhibiting a relatively strong ATP secretion inhibitory effect ([2]; data not shown)
O=P(O)(O)C(Cl)(Cl)P(=O)(O)O [clodronate] | inhibited | strongly inhibited | inhibits the ATP secretion promoted by ionomycin | inhibited | strongly inhibited | – | – | – | – | – | – | – | – | – | –
C[C@H]1N=C(N(C)C)N=C(N)N1 [imeglimin] | – | – | – | inhibited | strongly inhibited | inhibited ATP secretion | slightly higher ATP secretion inhibitory effect than metformin | exhibit an ATP secretion inhibitory effect | about 6 hours | about 85% | about 40% | comparable to those of 1 µM EPA and 10 µM clodronate | – | – | –
C=C(OP(=O)(O)O)C(=O)O [PEP, phosphoenolpyruvic acid] | – | – | – | – | – | – | – | – | – | – | – | – | inhibited | inhibited | not less than 3 mM
